Test results as given in ChEMBL document CHEMBL3885881, “DrugMatrix”.

Species on record: Rattus norvegicus
Assay: DrugMatrix - Regimen: Daily Repeat
Type: toxicity, organism-based, Sprague-Dawley
Set-up: regimen Daily Repeat, gender Male, age 6-8 weeks
Conditions: in vivo, po, route oral GAVAGE, […]; for ABSOLUTE BASOPHIL / ABSOLUTE EOSINOPHIL / ABSOLUTE LYMPHOCYTE / ABSOLUTE MONOCYTE / ABSOLUTE SEGMENTED NEUTROPHIL / BASOPHIL / EOSINOPHIL / ERYTHROCYTE COUNT / HEMATOCRIT / HEMOGLOBIN / LEUKOCYTE COUNT / LYMPHOCYTE / MEAN CORPUSCULAR HEMOGLOBIN / MEAN CORPUSCULAR HEMOGLOBIN CONCENTRATION / MEAN CORPUSCULAR VOLUME / MONOCYTE / NEUTROPHIL / NUCLEATED RED BLOOD CELLS / PLATELET COUNT: tissue Blood; for ALANINE AMINOTRANSFERASE / ALBUMIN / ALKALINE PHOSPHATASE / ASPARTATE AMINOTRANSFERASE / BLOOD UREA NITROGEN / CARBON DIOXIDE / CHLORIDE / CHOLESTEROL / CREATINE PHOSPHOKINASE / CREATININE / GLUCOSE / LACTATE DEHYDROGENASE / LIPASE / PHOSPHORUS / POTASSIUM / SODIUM / TOTAL BILIRUBIN / TOTAL PROTEIN / URIC ACID: tissue Plasma
[1] = 100 mg/kg, 120 h, dose level Low, time 5 day
[2] = 1000 mg/kg, 72 h, dose level High, time 3 day
[3] = 1000 mg/kg, 120 h, dose level High, time 5 day

With `CCCC[C@@H](CC)COC(=O)c1ccccc1C(=O)OC[C@@H](CC)CCCC` [BIS(2-ETHYLHEXYL)PHTHALATE] the “ABSOLUTE BASOPHIL” value [1] was 0 CELLS/uL, the “ABSOLUTE EOSINOPHIL” value [1] was 0 CELLS/uL and the “ABSOLUTE LYMPHOCYTE” value [1] was 8094 CELLS/uL. For the same compound, the “ABSOLUTE MONOCYTE” value [1] was 0 CELLS/uL, the “ABSOLUTE SEGMENTED NEUTROPHIL” value [1] was 772.67 CELLS/uL and the BASOPHIL [1] was 0%. For the same compound, the EOSINOPHIL [1] was 0%, the “ERYTHROCYTE COUNT” value [1] was 5.86 x10E6/uL and the HEMATOCRIT [1] was 36.1%. For the same compound, the HEMOGLOBIN [1] was 13.63 G/DL, the “LEUKOCYTE COUNT” value [1] was 8.87 x10E3/uL and the LYMPHOCYTE [1] was 92.33%. For the same compound, the “MEAN CORPUSCULAR HEMOGLOBIN” value [1] was 23.33 pg, the “MEAN CORPUSCULAR HEMOGLOBIN CONCENTRATION” value [1] was 37.8 G/DL and the “MEAN CORPUSCULAR VOLUME” value [1] was 61.67 fL. The MONOCYTE [1] was 0%, the NEUTROPHIL [1] was 7.67% and the “NUCLEATED RED BLOOD CELLS” value [1] was 0 /100WBC. The “PLATELET COUNT” value [1] was 682.33 x10E3/uL, the “ALANINE AMINOTRANSFERASE” value [1] was 80 u/L and the ALBUMIN [1] was 4.27 G/DL. The “ALKALINE PHOSPHATASE” value [1] was 577.33 u/L, the “ASPARTATE AMINOTRANSFERASE” value [1] was 98.33 u/L and the “BLOOD UREA NITROGEN” value [1] was 14.67 mg/dL. For the same compound, the “CARBON DIOXIDE” value [1] was 35.67 mmol/L, the CHLORIDE [1] was 99 MEQ/L and the CHOLESTEROL [1] was 41 mg/dL. For the same compound, the “CREATINE PHOSPHOKINASE” value [1] was 172 u/L, the CREATININE [1] was 0.21 mg/dL and the GLUCOSE [1] was 156.33 mg/dL. The “LACTATE DEHYDROGENASE” value [1] was 135.33 u/L, the LIPASE [1] was 22.33 u/L and the PHOSPHORUS [1] was 10.4 mg/dL. The POTASSIUM [1] was 5.25 MEQ/L, the SODIUM [1] was 144.53 MEQ/L and the “TOTAL BILIRUBIN” value [1] was 0.17 mg/dL. For the same compound, the “TOTAL PROTEIN” value [1] was 5.63 G/DL, the “URIC ACID” value [1] was 0.63 mg/dL and the “ABSOLUTE BASOPHIL” value [2] was 0 CELLS/uL. The “ABSOLUTE EOSINOPHIL” value [2] was 0 CELLS/uL, the “ABSOLUTE LYMPHOCYTE” value [2] was 10510 CELLS/uL and the “ABSOLUTE MONOCYTE” value [2] was 28 CELLS/uL. For the same compound, the “ABSOLUTE SEGMENTED NEUTROPHIL” value [2] was 628.67 CELLS/uL, the BASOPHIL [2] was 0% and the EOSINOPHIL [2] was 0%. The “ERYTHROCYTE COUNT” value [2] was 5.07 x10E6/uL, the HEMATOCRIT [2] was 32.33% and the HEMOGLOBIN [2] was 12.8 G/DL. For the same compound, the “LEUKOCYTE COUNT” value [2] was 11.17 x10E3/uL, the LYMPHOCYTE [2] was 93.67% and the “MEAN CORPUSCULAR HEMOGLOBIN” value [2] was 25.3 pg. The “MEAN CORPUSCULAR HEMOGLOBIN CONCENTRATION” value [2] was 39.57 G/DL, the “MEAN CORPUSCULAR VOLUME” value [2] was 63.8 fL and the MONOCYTE [2] was 0.33%. For the same compound, the NEUTROPHIL [2] was 6%, the “NUCLEATED RED BLOOD CELLS” value [2] was 0 /100WBC and the “PLATELET COUNT” value [2] was 532 x10E3/uL. The “ALANINE AMINOTRANSFERASE” value [2] was 82 u/L, the ALBUMIN [2] was 4.03 G/DL and the “ALKALINE PHOSPHATASE” value [2] was 468.67 u/L. The “ASPARTATE AMINOTRANSFERASE” value [2] was 94 u/L, the “BLOOD UREA NITROGEN” value [2] was 14.67 mg/dL and the “CARBON DIOXIDE” value [2] was 26 mmol/L. The CHLORIDE [2] was 96.33 MEQ/L, the CHOLESTEROL [2] was 44.67 mg/dL and the “CREATINE PHOSPHOKINASE” value [2] was 477.67 u/L. The CREATININE [2] was 0.2 mg/dL, the GLUCOSE [2] was 161.67 mg/dL and the “LACTATE DEHYDROGENASE” value [2] was 137 u/L. For the same compound, the LIPASE [2] was 8.67 u/L, the PHOSPHORUS [2] was 10.3 mg/dL and the POTASSIUM [2] was 4.99 MEQ/L. The SODIUM [2] was 137.1 MEQ/L, the “TOTAL BILIRUBIN” value [2] was 0.0667 mg/dL and the “TOTAL PROTEIN” value [2] was 5.33 G/DL. The “URIC ACID” value [2] was 0.77 mg/dL, the “ABSOLUTE BASOPHIL” value [3] was 0 CELLS/uL and the “ABSOLUTE EOSINOPHIL” value [3] was 0 CELLS/uL. For the same compound, the “ABSOLUTE LYMPHOCYTE” value [3] was 8272 CELLS/uL, the “ABSOLUTE MONOCYTE” value [3] was 65 CELLS/uL and the “ABSOLUTE SEGMENTED NEUTROPHIL” value [3] was 663 CELLS/uL. The BASOPHIL [3] was 0%, the EOSINOPHIL [3] was 0% and the “ERYTHROCYTE COUNT” value [3] was 5.57 x10E6/uL. For the same compound, the HEMATOCRIT [3] was 34.07%, the HEMOGLOBIN [3] was 13.37 G/DL and the “LEUKOCYTE COUNT” value [3] was 9 x10E3/uL. The LYMPHOCYTE [3] was 92%, the “MEAN CORPUSCULAR HEMOGLOBIN” value [3] was 24 pg and the “MEAN CORPUSCULAR HEMOGLOBIN CONCENTRATION” value [3] was 39.23 G/DL. The “MEAN CORPUSCULAR VOLUME” value [3] was 61.2 fL, the MONOCYTE [3] was 0.67% and the NEUTROPHIL [3] was 7.33%. The “NUCLEATED RED BLOOD CELLS” value [3] was 0 /100WBC, the “PLATELET COUNT” value [3] was 1014.67 x10E3/uL and the “ALANINE AMINOTRANSFERASE” value [3] was 84.67 u/L. The ALBUMIN [3] was 4.23 G/DL, the “ALKALINE PHOSPHATASE” value [3] was 412.67 u/L and the “ASPARTATE AMINOTRANSFERASE” value [3] was 99 u/L. The “BLOOD UREA NITROGEN” value [3] was 14.33 mg/dL, the “CARBON DIOXIDE” value [3] was 35.33 mmol/L and the CHLORIDE [3] was 100.33 MEQ/L. For the same compound, the CHOLESTEROL [3] was 53 mg/dL, the “CREATINE PHOSPHOKINASE” value [3] was 324.67 u/L and the CREATININE [3] was 0.12 mg/dL. For the same compound, the GLUCOSE [3] was 168.33 mg/dL, the “LACTATE DEHYDROGENASE” value [3] was 165.33 u/L and the LIPASE [3] was 9.33 u/L. The PHOSPHORUS [3] was 10.6 mg/dL, the POTASSIUM [3] was 5.56 MEQ/L and the SODIUM [3] was 144.83 MEQ/L. The “TOTAL BILIRUBIN” value [3] was 0.13 mg/dL, the “TOTAL PROTEIN” value [3] was 5.77 G/DL and the “URIC ACID” value [3] was 0.7 mg/dL.
